In this assay the target is LPA2 (Homo sapiens, UniProt Q9HBW0). In kind it is cell-based.

SMILES strings stand for the structures.

LPA2, sequence (Q9HBW0 whole entry): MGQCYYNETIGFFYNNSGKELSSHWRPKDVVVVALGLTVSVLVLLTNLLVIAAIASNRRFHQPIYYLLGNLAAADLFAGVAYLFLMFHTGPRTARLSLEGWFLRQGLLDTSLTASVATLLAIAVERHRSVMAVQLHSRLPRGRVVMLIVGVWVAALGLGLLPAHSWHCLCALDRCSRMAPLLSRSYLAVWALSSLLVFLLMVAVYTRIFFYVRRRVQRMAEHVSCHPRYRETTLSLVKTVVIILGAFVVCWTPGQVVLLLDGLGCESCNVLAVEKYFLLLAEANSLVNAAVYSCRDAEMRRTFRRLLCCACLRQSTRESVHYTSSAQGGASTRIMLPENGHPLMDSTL

`O=C(O)c1ccccc1S(=O)(=O)NCCCCN1C(=O)c2cccc3cccc(c23)C1=O` [DBIBB, 2-[4-(1,3-Dioxo-1H,3H-benzo[de]isoquinolin-2-yl)butylsulfamoyl] benzoic acid]: the concentration for a half-maximal effect (EC50) (in general, the midpoint of the concentration-response curve) is around 0.1 µM.

Values taken from publication PMC4336611 (Chemistry & biology, 2015).
